# Earlier results as cited in paper PMC7968864, “Theory of Allosteric Regulation in Hsp70 Molecular Chaperones” (QRB Discovery, 2020).
# Tests used:
# I483D DnaK = tested on: I483D DnaK; design: method as in Wang et al., 2020; settings: fluorescein-labelled NR peptide 10 nM, fluorescence anisotropy, ref Wang et al., 2020
# WT DnaK = settings: fluorescence anisotropy, ref Wang et al., 2020
substance,measurement,setting,value
NRLLLTG [fluorescein-labelled NR peptide],peptide binding in ADP (in words),I483D DnaK,indistinguishable from that to WT when in ADP
same,peptide binding in ATP versus ADP (in words),WT DnaK,much reduced in the presence of ATP as compared to when with ADP
